The record followed here is US4537769A (priority 1982, dated 1985).

Like-named read-outs stand apart in the source and are kept apart here.

In the series the test system is H7N1 neuraminidase. It counts as biochemical, influenza virus. As to conditions: for Units of Activity: 37° C. for 24 hours; for Neuraminidase Activity-24 Hrs Post 37° C.: H7N1 vaccine.
Where [1] appears, read: H7N1 vaccine with additive at .03%.
Where [2] appears, read: H7N1 vaccine with additive at .07%.
The mark [3] stands for this setting: H7N1 vaccine with additive at .04%.
Setting [4] is: H7N1 vaccine with additive at .05%.
[5] abbreviates: H7N1 vaccine with additive at .02%.

Consider `N[C@@H](Cc1c[nH]c2ccccc12)C(=O)O` [Tryptophan], for which the “Units of Activity” value (H7N1 vaccine with additive at .01%) is given as 10.4 Nanomoles of N--acetyl neurami.
Take `C[C@H](N)C(=O)O` [Alanine]: the “Units of Activity” value under setting [1] is 9.0 Nanomoles of N--acetyl neurami.
With `NCCCC[C@H](N)C(=O)O` [Lysine], under setting [2], the “Units of Activity” value is recorded as 8.5 Nanomoles of N--acetyl neurami.
Consider `N[C@@H](Cc1ccccc1)C(=O)O` [Phenylalanine], for which the “Units of Activity” value under setting [3] is reported as 9.1 Nanomoles of N--acetyl neurami.
Take `CC[C@H](C)[C@H](N)C(=O)O` [Isoleucine]: the “Units of Activity” value under setting [4] was 5.2 Nanomoles of N--acetyl neurami.
`CSCC[C@H](N)C(=O)O` [Methionine]: the “Units of Activity” value under setting [5] is on record as 8.9 Nanomoles of N--acetyl neurami.
On to `N[C@@H](CC(=O)O)C(=O)O` [Aspartic Acid], for which the “Units of Activity” value under setting [2] was 5.9 Nanomoles of N--acetyl neurami.
Turning to `O=C(O)[C@@H]1CCCN1` [Proline], for the setting “H7N1 vaccine with additive at .09%”, the “Units of Activity” value is given as 12.3 Nanomoles of N--acetyl neurami. Besides, the “Neuraminidase Activity-24 Hrs Post 37° C.” value is, setting by setting: (No. 5: Proline 0.09 % w/v) 12.3; (No. 6: Proline 0.18 % w/v) 17.5; (No. 7: Proline 0.36 % w/v) 26.2; (No. 8: Proline 0.54 % w/v) 30.7.
As for `NCC(=O)O` [Glycine], under setting [5], the “Units of Activity” value was 8.5 Nanomoles of N--acetyl neurami.
As to `C[C@@H](O)[C@H](N)C(=O)O` [Threonine], the “Units of Activity” value under setting [3] is listed as 6.7 Nanomoles of N--acetyl neurami.
For the compound `N[C@@H](CCC(=O)O)C(=O)O` [Glutamic Acid], the “Units of Activity” value (H7N1 vaccine with additive at .18%) is listed as 4.5 Nanomoles of N--acetyl neurami.
`N[C@@H](Cc1ccc(O)cc1)C(=O)O` [Tyrosine]: under setting [1], the “Units of Activity” value is recorded as 4.4 Nanomoles of N--acetyl neurami.
On to `N[C@@H](Cc1c[nH]cn1)C(=O)O` [Histidine], for which the “Units of Activity” value under setting [5] is 13.1 Nanomoles of N--acetyl neurami. The “Neuraminidase Activity-24 Hrs Post 37° C.” value is listed as 13.0 (No. 1: Histidine 0.02 % w/v), 17.3 (No. 2: Histidine 0.05 % w/v), 23.8 (No. 3: Histidine 0.09 % w/v) and 27.9 (No. 4: Histidine 0.13 % w/v).
As for `N[C@@H](CO)C(=O)O` [Serine], the “Units of Activity” value under setting [4] is given as 9.1 Nanomoles of N--acetyl neurami.
Consider `CC(C)C[C@H](N)C(=O)O` [Leucine], for which the “Units of Activity” value (H7N1 vaccine with additive at .08%) is on record as 7.3 Nanomoles of N--acetyl neurami.
Turning to `CC(C)[C@H](N)C(=O)O` [Valine], the “Units of Activity” value (H7N1 vaccine with additive at .06%) is 6.7 Nanomoles of N--acetyl neurami.
